Target: T1, BTK (Homo sapiens, UniProt Q06187)
T1 construct: endogenous in cells; host or cells: TMD-8 cells
Experiment: BTK degradation in TMD-8 cells, HTRF assay after 6 h treatment
Assay type: cell-based
Conditions: IC50 (DC50) of BTK degradation
Summary of the method: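 TMD-8 cells treated for 6 h with 8 compound doses in 6-fold dilution steps from a 1 mM 500× DMSO stock (0.2% DMSO), then lysed 30 min at room temperature. BTK in lysate detected by HTRF (665/620 nm) after overnight antibody incubation; DC50 from four-parameter curve fit.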

T1 sequence (Q06187 whole entry): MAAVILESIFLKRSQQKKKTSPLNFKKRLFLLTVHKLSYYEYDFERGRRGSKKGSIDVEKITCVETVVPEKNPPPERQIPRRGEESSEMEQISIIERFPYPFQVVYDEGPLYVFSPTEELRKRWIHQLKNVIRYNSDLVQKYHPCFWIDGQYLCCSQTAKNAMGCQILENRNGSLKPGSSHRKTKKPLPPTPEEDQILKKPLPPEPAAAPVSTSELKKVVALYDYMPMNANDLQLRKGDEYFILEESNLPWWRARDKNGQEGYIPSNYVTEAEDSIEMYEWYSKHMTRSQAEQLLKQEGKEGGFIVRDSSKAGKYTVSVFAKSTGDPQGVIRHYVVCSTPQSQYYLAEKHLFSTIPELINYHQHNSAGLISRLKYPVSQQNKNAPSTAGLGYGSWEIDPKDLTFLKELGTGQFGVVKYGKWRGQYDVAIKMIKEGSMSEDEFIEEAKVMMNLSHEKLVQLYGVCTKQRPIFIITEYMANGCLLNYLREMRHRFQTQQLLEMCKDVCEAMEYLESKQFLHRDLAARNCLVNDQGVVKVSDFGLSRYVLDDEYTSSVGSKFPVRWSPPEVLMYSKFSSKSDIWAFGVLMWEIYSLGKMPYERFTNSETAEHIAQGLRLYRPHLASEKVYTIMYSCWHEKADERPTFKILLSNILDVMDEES

Structure (SMILES) | DC50 [nM]
Cc1cc(-c2n[nH]c3ncc(-c4ccc(N5CCN(CCc6ccc(C7CCC(=O)NC7=O)cn6)CC5)cc4)cc23)ccc1[C@@H](C)NC(=O)c1noc(C(C)(C)C)n1 (stereo partly drawn) [Example 101, 5-(tert-butyl)-N-((1R)-1-(4-(5-(4-(4-(2-(5-(2,6-dioxopiperidin-3-yl)pyridin-2-yl)ethyl)piperazin-1-yl)phenyl)-1H-pyrazolo[3,4-b]pyridin-3-yl)-2-methylphenyl)ethyl)-1,2,4-oxadiazole-3-carboxamide] | 0.959
Cc1cc(-c2n[nH]c3ncc(-c4ccc(N5CCN(CCc6ccc(C7CCC(=O)NC7=O)cc6)CC5)cn4)cc23)ccc1CNC(=O)c1noc(C(C)(C)C)n1 (stereo not shown) [Example 103, 5-(tert-butyl)-N-(4-(5-(5-(4-(4-(2,6-dioxopiperidin-3-yl)phenethyl)piperazin-1-yl)pyridin-2-yl)-1H-pyrazolo[3,4-b]pyridin-3-yl)-2-methylbenzyl)-1,2,4-oxadiazole-3-carboxamide] | 1.31
Cc1cc(-c2n[nH]c3ncc(-c4ccc(N5CCN(CCC6CCN(c7ccc(N8CCC(=O)NC8=O)c(Cl)c7)CC6)CC5)cc4)cc23)ccc1[C@@H](C)NC(=O)c1ccc(C(C)(C)O)cc1F [Example 104, (R)—N-(1-(4-(5-(4-(4-(2-(1-(3-chloro-4-(2,4-dioxotetrahydropyrimidin-1(2H)-yl)phenyl)piperidin-4-yl)ethyl)piperazin-1-yl)phenyl)-1H-pyrazolo[3,4-b]pyridin-3-yl)-2-methylphenyl)ethyl)-2-fluoro-4-(2-hydroxypropan-2-yl)benzamide] | > 2000
Cc1cc(-c2n[nH]c3ncc(-c4ccc(C5CCN(CC6CCN(c7ccc(N8CCC(=O)NC8=O)c(C)c7)CC6)CC5)nc4)cc23)ccc1CNC(=O)c1nc(C(C)(C)C)no1 [Example 105, 3-(tert-butyl)-N-(4-(5-(6-(1-((1-(4-(2,4-dioxotetrahydropyrimidin-1(2H)-yl)-3-methylphenyl)piperidin-4-yl)methyl)piperidin-4-yl)pyridin-3-yl)-1H-pyrazolo[3,4-b]pyridin-3-yl)-2-methylbenzyl)-1,2,4-oxadiazole-5-carboxamide] | 3.55
Cc1cc(-c2n[nH]c3ncc(-c4ccc(N5CCN(CCc6ccc(C7CCC(=O)NC7=O)cc6)CC5)cc4)cc23)ccc1CNC(=O)c1noc(C(C)(C)C)n1 (stereo not shown) [Example 107, 5-(tert-butyl)-N-(4-(5-(4-(4-(4-(2,6-dioxopiperidin-3-yl)phenethyl)piperazin-1-yl)phenyl)-1H-pyrazolo[3,4-b]pyridin-3-yl)-2-methylbenzyl)-1,2,4-oxadiazole-3-carboxamide] | 1.89
Cc1cc(-c2n[nH]c3ncc(-c4ccc(N5CCN(CCc6ccc(C7CCC(=O)NC7=O)cc6)CC5)cc4)cc23)ccc1CNC(=O)c1cn(C(C)(C)C)nn1 (stereo not shown) [Example 108, 1-(tert-butyl)-N-(4-(5-(4-(4-(4-(2,6-dioxopiperidin-3-yl)phenethyl)piperazin-1-yl)phenyl)-1H-pyrazolo[3,4-b]pyridin-3-yl)-2-methylbenzyl)-1H-1,2,3-triazole-4-carboxamide] | 4.13
Cc1cc(-c2n[nH]c3ncc(-c4ccc(N5CCN(CCc6ccc([C@H]7CCC(=O)NC7=O)cc6)CC5)cc4)cc23)ccc1[C@@H](C)NC(=O)c1noc(C(C)(C)C)n1 [Example 111, 5-(tert-butyl)-N—((R)-1-(4-(5-(4-(4-(4-((R)-2,6-dioxopiperidin-3-yl)phenethyl)piperazin-1-yl)phenyl)-1H-pyrazolo[3,4-b]pyridin-3-yl)-2-methylphenyl)ethyl)-1,2,4-oxadiazole-3-carboxamide] | 4.93
Cc1cc(-c2n[nH]c3ncc(-c4ccc(N5CCN(CCc6ccc([C@@H]7CCC(=O)NC7=O)cc6)CC5)cc4)cc23)ccc1[C@@H](C)NC(=O)c1noc(C(C)(C)C)n1 [Example 112, 5-(tert-butyl)-N—((R)-1-(4-(5-(4-(4-(4-((S)-2,6-dioxopiperidin-3-yl)phenethyl)piperazin-1-yl)phenyl)-1H-pyrazolo[3,4-b]pyridin-3-yl)-2-methylphenyl)ethyl)-1,2,4-oxadiazole-3-carboxamide] | 1.79

The remaining lines, values ahead:

DC50 [nM] | Structure (SMILES)
7.24 | Cc1cc(-c2n[nH]c3ncc(-c4ccc(N5CCN(CCC6CCN(c7ccc([C@@H]8CCC(=O)NC8=O)cc7)CC6)CC5)cc4)cc23)ccc1CNC(=O)c1noc(C(C)(C)C)n1 [Example 92, (S)-5-(tert-butyl)-N-(4-(5-(4-(4-(2-(1-(4-(2,6-dioxopiperidin-3-yl)phenyl)piperidin-4-yl)ethyl)piperazin-1-yl)phenyl)-1H-pyrazolo[3,4-b]pyridin-3-yl)-2-methylbenzyl)-1,2,4-oxadiazole-3-carboxamide]
28.8 | Cc1cc(-c2n[nH]c3ncc(-c4ccc(N5CCN(CC6CCN(c7ccc(N8CCC(=O)NC8=O)cc7)CC6)CC5)cc4)cc23)ccc1CNC(=O)c1csc(C(C)(C)C)n1 [Example 93, 2-(tert-butyl)-N-(4-(5-(4-(4-((1-(4-(2,4-dioxotetrahydropyrimidin-1(2H)-yl)phenyl)piperidin-4-yl)methyl)piperazin-1-yl)phenyl)-1H-pyrazolo[3,4-b]pyridin-3-yl)-2-methylbenzyl)thiazole-4-carboxamide]
13.1 | Cc1cc(-c2n[nH]c3ncc(-c4ccc(N5CCN(CC6CCN(c7ccc(N8CCC(=O)NC8=O)cc7)CC6)CC5)cc4)cc23)ccc1CNC(=O)c1cnc(C(C)(C)C)s1 [Example 94, 2-(tert-butyl)-N-(4-(5-(4-(4-((1-(4-(2,4-dioxotetrahydropyrimidin-1(2H)-yl)phenyl)piperidin-4-yl)methyl)piperazin-1-yl)phenyl)-1H-pyrazolo[3,4-b]pyridin-3-yl)-2-methylbenzyl)thiazole-5-carboxamide]
71.4 | Cc1cc(-c2n[nH]c3ncc(-c4cccc(N5CCN(CC6CCN(c7ccc(N8CCC(=O)NC8=O)cc7)CC6)CC5)c4)cc23)ccc1[C@@H](C)NC(=O)c1noc(C(C)(C)C)n1 [Example 95, (R)-5-(tert-butyl)-N-(1-(4-(5-(3-(4-((1-(4-(2,4-dioxotetrahydropyrimidin-1(2H)-yl)phenyl)piperidin-4-yl)methyl)piperazin-1-yl)phenyl)-1H-pyrazolo[3,4-b]pyridin-3-yl)-2-methylphenyl)ethyl)-1,2,4-oxadiazole-3-carboxamide]
> 2000 | Cc1cc(-c2n[nH]c3ncc(-c4ccc(N5CCN(CC6CCN(c7ccc(N8CCC(=O)NC8=O)cc7)CC6)CC5)cc4)cc23)ccc1[C@@H](C)NC(=O)c1ccc(C(C)(C)O)cc1F [Example 96, (R)—N-(1-(4-(5-(4-(4-((1-(4-(2,4-dioxotetrahydropyrimidin-1(2H)-yl)phenyl)piperidin-4-yl)methyl)piperazin-1-yl)phenyl)-1H-pyrazolo[3,4-b]pyridin-3-yl)-2-methylphenyl)ethyl)-2-fluoro-4-(2-hydroxypropan-2-yl)benzamide]
5.8 | Cc1cc(-c2n[nH]c3ncc(-c4ccc(N5CCN(CC6CCN(c7ccc(N8CCC(=O)NC8=O)cc7)CC6)CC5)c(F)c4)cc23)ccc1[C@@H](C)NC(=O)c1noc(C(C)(C)C)n1 [Example 97, (R)-5-(tert-butyl)-N-(1-(4-(5-(4-(4-((1-(4-(2,4-dioxotetrahydropyrimidin-1(2H)-yl)phenyl)piperidin-4-yl)methyl)piperazin-1-yl)-3-fluorophenyl)-1H-pyrazolo[3,4-b]pyridin-3-yl)-2-methylphenyl)ethyl)-1,2,4-oxadiazole-3-carboxamide]
2.68 | Cc1cc(-c2n[nH]c3ncc(-c4ccc(N5CCN(CC6CCN(c7ccc(N8CCC(=O)NC8=O)c(C)c7)CC6)CC5)cc4)cc23)ccc1[C@@H](C)NC(=O)c1nc(C(C)(C)C)no1 [Example 98, (R)-3-(tert-butyl)-N-(1-(4-(5-(4-(4-((1-(4-(2,4-dioxotetrahydropyrimidin-1(2H)-yl)-3-methylphenyl)piperidin-4-yl)methyl)piperazin-1-yl)phenyl)-1H-pyrazolo[3,4-b]pyridin-3-yl)-2-methylphenyl)ethyl)-1,2,4-oxadiazole-5-carboxamide]
17.8 | Cc1c(CNC(=O)c2noc(C(C)(C)C)n2)ccc(-c2n[nH]c3ncc(-c4ccc(N5CCN(CC6CCN(c7ccc(N8CCC(=O)NC8=O)cc7)CC6)CC5)cc4)cc23)c1F [Example 99, 5-(tert-butyl)-N-(4-(5-(4-(4-((1-(4-(2,4-dioxotetrahydropyrimidin-1(2H)-yl)phenyl)piperidin-4-yl)methyl)piperazin-1-yl)phenyl)-1H-pyrazolo[3,4-b]pyridin-3-yl)-3-fluoro-2-methylbenzyl)-1,2,4-oxadiazole-3-carboxamide]
10.2 | Cc1cc(-c2n[nH]c3ncc(-c4ccc(N5CCN(CC6CCN(c7ccc(N8CCC(=O)NC8=O)cc7)CC6)CC5)cc4)cc23)c(F)cc1CNC(=O)c1noc(C(C)(C)C)n1 [Example 100, 5-(tert-butyl)-N-(4-(5-(4-(4-((1-(4-(2,4-dioxotetrahydropyrimidin-1(2H)-yl)phenyl)piperidin-4-yl)methyl)piperazin-1-yl)phenyl)-1H-pyrazolo[3,4-b]pyridin-3-yl)-5-fluoro-2-methylbenzyl)-1,2,4-oxadiazole-3-carboxamide]
9.72 | Cc1cc(-c2n[nH]c3ncc(-c4ccc(N5CCN(CC6CCN(c7ccc(N8CCC(=O)NC8=O)cc7)CC6)CC5)c(C)c4)cc23)ccc1[C@@H](C)NC(=O)c1noc(C(C)(C)C)n1 [Example 102, (R)-5-(tert-butyl)-N-(1-(4-(5-(4-(4-((1-(4-(2,4-dioxotetrahydropyrimidin-1(2H)-yl)phenyl)piperidin-4-yl)methyl)piperazin-1-yl)-3-methylphenyl)-1H-pyrazolo[3,4-b]pyridin-3-yl)-2-methylphenyl)ethyl)-1,2,4-oxadiazole-3-carboxamide]
13.3 | Cc1cc(-c2n[nH]c3ncc(-c4ccc(N5CCN(CC6CCN(c7ccc(N8CCC(=O)NC8=O)cc7)CC6)CC5)cc4)cc23)ccc1[C@@H](C)NC(=O)c1noc(C2(C)CC2)n1 [Example 109, (R)—N-(1-(4-(5-(4-(4-((1-(4-(2,4-dioxotetrahydropyrimidin-1(2H)-yl)phenyl)piperidin-4-yl)methyl)piperazin-1-yl)phenyl)-1H-pyrazolo[3,4-b]pyridin-3-yl)-2-methylphenyl)ethyl)-5-(1-methylcyclopropyl)-1,2,4-oxadiazole-3-carboxamide]

Source: patent publication US20230322761A1, “DEGRADATION OF BRUTON'S TYROSINE KINASE (BTK) BY CONJUGATION OF BTK INHIBITORS WITH E3 LIGASE LIGAND AND METHODS OF USE” (BEIGENE, LTD., priority 2020, published 2023)
